ChEMBL document CHEMBL5724558, “Image-based profiling of drug vulnerabilities in CRC organoids” (2024)
Values joined by “and” are separate entries in the source; they are usually repeats but may differ in a detail not shown here. Equal values may be shown once.

Experiments:
Type in all cases: functional, Homo sapiens
Design in all cases: dose or concentration left out as unconfirmed
Colon cancer organoid [1] = experiment: (§1) Image-based profiling of donated chemical probes and chemogenomic kinase set in O06 CRC organoid. Image analysis is performed on the sum area metric, and the data were normalized to the DMSO control. After imaging the organoid viability is measured using the OneGloEX Luciferase Assay System. The normalized viability data and sum area are reported.
Colon cancer organoid [2] = experiment: as §1, with “O09” for “O06”
Colon cancer organoid [3] = experiment: as §1, with “O21” for “O06”

Row | Compound | Cell Viability (Colon cancer organoid [1]; Replication number 1) | Cell Viability (Colon cancer organoid [1]; Replication number 2) | Cell Viability (Colon cancer organoid [2]; Replication number 1) | Cell Viability (Colon cancer organoid [2]; Replication number 2) | Cell Viability (Colon cancer organoid [3]; Replication number 1) | Cell Viability (Colon cancer organoid [3]; Replication number 2)
1 | CC(=O)Nc1c(C(C)=O)c(=O)n(C)c2nc(-c3ccc(Cl)cc3Cl)c(-c3ccc(Cl)cc3)cc12 [NAPHTHYRIDINONE] | 123.545% and 117.564% | 103.77% and 94.7587% | 117.091% and 130.21% | 64.3844% and 79.7371% | 94.8536% and 101.294% | 91.9114% and 85.7143%
2 | CN(C(=O)c1ccccc1)c1cc(N(C)c2ccc3c(c2)CCc2ccc(C(=O)NCCN4CCOCC4)cc2C3=O)ccc1F [FM-743] | 90.1876% and 101.781% | 105.862% and 118.933% | 89.1217% and 99.5999% | 73.0037% and 91.594% | 111.27% and 106.402% | 83.0534% and 97.3827%
3 | C[C@H](NC(=O)Nc1cc2[nH]ncc2c(CO)n1)c1ccccn1 [ERKi-NC] | 123.043% and 110.304% | 54.2126% and 97.1276% | 84.2492% and 86.249% | 90.2054% and 105.732% | 112.403% and 96.6365% | 96.9008% and 86.2245%
4 | Cn1cc(C2=C(c3cn(C4CCN(Cc5ccccn5)CC4)c4ccccc34)C(=O)NC2=O)c2ccccc21 [ENZASTAURIN] | 30.0951% and 84.3511% | 45.1765% and 67.455% | 88.965% and 63.5811% | 82.186% and 57.4996% | 107.446% and 117.631% | 96.9547% and 121.483%
5 | Cc1nccc(COC(=O)N2C[C@@H]3[C@@H](CNC(=O)c4ccc5[nH]nnc5c4)[C@@H]3C2)n1 [BI 3017] | 85.9577% and 77.5176% | 101.815% and 101.392% | 118.304% and 89.116% | 133.367% and 124.133% | 96.5552% and 87.3221% | 97.9165% and 92.8571%
6 | CO[C@@H](C)c1c(Nc2ccc([C@@H](N(C)C(=O)C3CCS(=O)(=O)CC3)C(F)(F)F)cc2)cnc2cc(Cl)nn12 [NVS-MALT1-C] | 48.3396% and 100.567% | 78.0608% and 112.446% | 63.1352% and 96.7863% | 75.29% and 89.0167% | 68.6015% and 94.398% | 97.4598% and 109.109%
7 | CC(=O)Nc1c(F)cc(C(=O)N[C@H]2CC[C@H](O)CC2)cc1O[C@@H](C)c1ccccc1 [GSK046] | 114.325% and 118.785% | 117.277% and 127.102% | 43.6665% and 86.4699% | 69.7579% and 96.7486% | 120.66% and 109.131% | 123.541% and 110.129%
8 | CCOc1ccn(-c2ccc(F)cc2)c(=O)c1C(=O)Nc1ccc(Oc2ccnc(N)c2Cl)c(F)c1 [BMS-777607] | 96.7201% and 108.61% | 116.766% and 115.578% | 102.993% and 102.228% | 97.5395% and 82.0651% | 134.256% and 110.941% | 106.617% and 115.725%
9 | O=c1nc(-c2ccccn2)sc2ccccc12 [BTZO-1] | 100.751% and 107.26% | 110.744% and 103.05% | 107.798% and 116.353% | 106.736% and 92.2965% | 137.995% and 94.89% | 98.0739% and 81.1225%
10 | CCC(=O)N1CCOc2c(cc(-c3ccc(OC)c(OC)c3)cc2OCC2CCCN(C)C2)C1 (stereo unspecified) | 144.88% and 142.792% | 105.633% and 74.0839% | 89.2152% and 99.2272% | 160.901% and 114.888% | 115.467% and 112.867% | 97.0638% and 103.64%
11 | CN(C)CCCOc1ccc(-c2cc(NCCCn3cccn3)nc(S(C)(=O)=O)n2)cc1 | 164.335% and 134.819% | 201.31% and 140.998% | 107.413% and 76.7388% | 121.884% and 89.5154% | 93.735% and 87.002% | 96.544% and 91.8258%
12 | CCCCN(Cc1ccccc1)C(=O)c1ccc(S(=O)(=O)Nc2ccccc2)cc1 | 128.543% and 118.777% | 114.906% and 147.848% | 116.29% and 115.073% | 99.5038% and 96.018% | 85.4191% and 92.3751% | 113.731% and 107.676%
13 | CO[C@H]1CNC[C@@H](OCC2CCC(F)(F)CC2)[C@@H]1Nc1ncc(-c2cncc(C)c2)c2cc(C)c(=O)[nH]c12 | 159.604% and 115.973% | 145.077% and 98.9379% | 183.516% and 118.934% | 127.49% and 119.734% | 117.954% and 107.577% | 97.9494% and 89.6778%
14 | CCOC(=O)CCNc1cc(N2CCc3ccccc3CC2)nc(-c2cccnc2)n1 | 133.48% and 94.953% | 206.72% and 136.936% | 137.493% and 102.473% | 150.843% and 118.309% | 67.1414% and 86.4141% | 103.603% and 97.7327%
15 | Cn1cnc2c(F)c(Nc3ccc(Br)cc3Cl)c(C(=O)NOCCO)cc21 [SELUMETINIB] | 17.7792% and 31.8399% | 27.9489% and 57.8656% | 59.0124% and 83.6445% | 134.387% and 96.018% | 30.9074% and 27.5425% | 36.6071% and 40.747%
16 | NS(=O)(=O)c1cc(NC(=O)C2(c3ccccc3Cl)CC2)ccc1Oc1cccc(Cl)c1 [BAY-207] | 85.045% and 103.044% | 47.3713% and 82.6769% | 172.466% and 128.537% | 110.661% and 134.648% | 111.619% and 128.655% | 96.7656% and 94.898%
17 | O=C(N1CCS(=O)(=O)CC1)N1C[C@H](c2ccc(OC(F)(F)F)cc2)C[C@H](c2nc(C3CC3)no2)C1 [BAY-386] | 89.0523% and 95.7845% | 109.266% and 112.289% | 89.9865% and 101.779% | 61.3549% and 77.1084% | 113.622% and 103.04% | 77.465% and 87.7551%
18 | COc1cc(OC)cc(-c2noc(N3CCN(C)C4(CCN(c5ccccc5)CC4)C3)n2)c1 | 202.541% and 143.275% | 168.695% and 116.861% | 101.833% and 98.7635% | 122.499% and 95.7871% | 113.13% and 104.05% | 103.365% and 96.1217%
19 | Cc1c(C(=O)Nc2ccc(Oc3ccnc4[nH]cc(-c5ccccc5)c34)c(F)c2)c(=O)n(-c2ccc(F)cc2)n1C | 83.9357% and 96.3695% | 67.8056% and 89.2545% | 202.234% and 105.47% | 155.309% and 109.6% | 102.708% and 102.021% | 105.094% and 114.574%
20 | COCC(=O)NC/C=C/c1ccc2ncnc(Nc3ccc(Oc4ccc(C)nc4)c(C)c3)c2c1 [CP-724714] | 34.9461% and 62.9851% | 41.6567% and 67.0437% | 68.0715% and 78.0427% | 150.035% and 112.57% | 88.8144% and 89.7561% | 117.053% and 106.513%
21 | O=C(O)CNC(=O)c1c(O)c2ccccc2n(Cc2ccccc2)c1=O | 94.9232% and 53.396% | 101.3% and 76.2347% | 105.314% and 91.1128% | 142.9% and 106.905% | 116.47% and 93.4683% | 109.318% and 89.1408%
22 | Cc1nc(NC(=O)N2CCC[C@H]2C(N)=O)sc1-c1ccnc(C(C)(C)C(F)(F)F)c1 [ALPELISIB] | 55.6533% and 63.4302% | 57.1927% and 78.1491% | 78.5129% and 75.0506% | 83.7581% and 44.8119% | 82.706% and 92.5436% | 73.0527% and 85.7863%
23 | CNC(=O)c1ccc(Nc2ncc(C(F)(F)F)c(NCc3nccnc3N(C)S(C)(=O)=O)n2)cc1 [DEFACTINIB] | 124.45% and 120.141% | 102.609% and 90.0207% | 29.7376% and 36.5543% | 24.312% and 22.1979% | 89.1869% and 86.74% | 98.5669% and 117.347%
24 | C[C@@H](c1cccc(C#N)c1)n1cc(Cl)cc(C(N)=O)c1=N.Cl | 94.9066% and 108.826% | 100.434% and 114.368% | 93.1286% and 91.7219% | 106.099% and 101.903% | 94.9994% and 100.946% | 88.3604% and 82.5969%
25 | CCNC(=O)c1cc2c(N3CCOCC3C)ccnc2[nH]1 (stereo unspecified) | 98.3654% and 112.881% | 119.727% and 97.8383% | 68.1497% and 105.84% | 64.0482% and 77.4005% | 130.503% and 111.772% | 91.1701% and 91.3265%
26 | COc1cc(N(C)c2ccnc3ccc(C(F)(F)F)cc23)cc(OC)c1OC | 100.25% and 97.181% | 103.599% and 93.0279% | 149.162% and 94.0382% | 152.627% and 99.9775% | 98.7422% and 93.5085% | 96.4741% and 84.441%
